Values of other authors, collected in article PMC13050480, “Preclinical Development of GT-14, a Novel Inhibitor of Gαi2 Protein: Comprehensive Evaluation of Physicochemical, Metabolic Characteristics and Tissue Distribution” (The AAPS journal, 2025).

Columns and labels:
[1] = cited from earlier work
α1-acid glycoprotein = tested on: α1-acid glycoprotein; design: method as in PMID 27106175; conditions: cited from earlier work
albumin = tested on: albumin; design: method as in PMID 27106175; conditions: cited from earlier work

In the case of C[C@]12CC[C@H](O)CC1=CC[C@@H]1[C@@H]2CC[C@]2(C)C(c3cccnc3)=CC[C@@H]12 [Abiraterone], the “volume of distribution (Vd)” value [1] is given as ~ 5630 L, the “protein-bound to α1-acid glycoprotein” value (α1-acid glycoprotein) is given as 89.4–95.6% and the protein-bound to albumin (albumin) is given as 95.6–99.9%.

For CC(O)(CS(=O)(=O)c1ccc(F)cc1)C(=O)Nc1ccc(C#N)c(C(F)(F)F)c1 (stereo not shown) [Bicalutamide], the half-life [1] is listed as 25 to 30 h, the oral bioavailability [1] is listed as “high oral bioavailability” and the “tissue distribution of [3H]-Bicalutamide” value [1] is listed as “preferential accumulation in the prostate, pituitary gland, and seminal vesicles, with limited brain penetration”.

For CNC(=O)c1ccc(N2C(=S)N(c3ccc(C#N)c(C(F)(F)F)c3)C(=O)C2(C)C)cc1F [Enzalutamide], the “apparent oral volume of distribution (Vd/F)” value [1] is listed as “around 110 L”.
